According to publication PMC4758254 (Nature plants, 2015):

Experiments:
[1] = target: T1, AtINT4 (Arabidopsis thaliana, UniProt O23492); experiment: inhibition of arsenic uptake into yeast cells, ICP-MS; type: cell-based; settings: 250 μM As(III), 0-8 μg/mL myo-inositol, 24 h, 30 °C; substrate competition
T1 sequence (O23492 1-582): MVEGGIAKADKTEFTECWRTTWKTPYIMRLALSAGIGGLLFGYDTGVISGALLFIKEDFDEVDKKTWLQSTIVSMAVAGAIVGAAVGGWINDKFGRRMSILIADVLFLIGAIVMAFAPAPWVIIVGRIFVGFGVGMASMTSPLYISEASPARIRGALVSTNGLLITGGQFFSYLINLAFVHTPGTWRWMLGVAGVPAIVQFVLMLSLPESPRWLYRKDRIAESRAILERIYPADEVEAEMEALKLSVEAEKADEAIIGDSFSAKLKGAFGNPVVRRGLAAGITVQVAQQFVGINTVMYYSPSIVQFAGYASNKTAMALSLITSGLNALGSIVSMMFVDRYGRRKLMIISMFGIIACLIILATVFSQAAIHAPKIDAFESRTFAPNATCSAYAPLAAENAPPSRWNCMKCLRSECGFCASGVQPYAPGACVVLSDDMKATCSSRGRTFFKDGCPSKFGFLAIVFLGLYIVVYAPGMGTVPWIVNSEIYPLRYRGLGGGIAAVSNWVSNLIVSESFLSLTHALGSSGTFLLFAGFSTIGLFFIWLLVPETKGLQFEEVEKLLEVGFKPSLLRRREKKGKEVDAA

[2] = target: T2, AtINT2 (Arabidopsis thaliana, UniProt Q9C757); experiment: as above; type: cell-based; settings: 250 μM As(III), 0-8 μg/mL myo-inositol, 24 h, 30 °C; substrate competition
T2 sequence (Q9C757 1-580): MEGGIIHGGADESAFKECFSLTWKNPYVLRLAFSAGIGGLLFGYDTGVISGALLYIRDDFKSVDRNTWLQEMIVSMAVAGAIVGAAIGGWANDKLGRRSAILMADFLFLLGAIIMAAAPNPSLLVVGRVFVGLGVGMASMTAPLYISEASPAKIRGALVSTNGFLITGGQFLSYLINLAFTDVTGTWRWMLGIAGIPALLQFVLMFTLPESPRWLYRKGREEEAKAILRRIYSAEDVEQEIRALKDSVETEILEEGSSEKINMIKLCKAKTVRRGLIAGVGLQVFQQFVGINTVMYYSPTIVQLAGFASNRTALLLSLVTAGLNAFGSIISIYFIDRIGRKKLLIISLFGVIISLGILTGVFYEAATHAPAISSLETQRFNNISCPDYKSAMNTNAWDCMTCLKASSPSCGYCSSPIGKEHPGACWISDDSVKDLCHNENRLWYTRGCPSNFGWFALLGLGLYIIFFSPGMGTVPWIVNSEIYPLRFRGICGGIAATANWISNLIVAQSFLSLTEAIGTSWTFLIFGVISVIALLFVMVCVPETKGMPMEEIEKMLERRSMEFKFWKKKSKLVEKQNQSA

O[C@H]1[C@H](O)[C@@H](O)[C@H](O)[C@@H](O)[C@H]1O [myo-inositol]
inhibition of arsenic uptake into yeast cells, ICP-MS [1]: substrate competition inhibited arsenic accumulation in D458-1B expressing AtINT2 or AtINT4 | inhibition of arsenic uptake into yeast cells, ICP-MS [2]: substrate competition inhibited arsenic accumulation in D458-1B expressing AtINT2 or AtINT4
